According to patent US12419869B2, “Methods of treating multiple sclerosis” (Vanda Pharmaceuticals Inc., priority 2021, dated 2025):

Legend:
clinical = conditions: human, in vivo
Experimental: Steady-state levels are approximately 2.0 to 2.6-fold greater than with a single dose, and are achieved following 3 days of administration of the maintenance dose of ponesimod.
The pharmacokinetics of ponesimod are similar in healthy subjects and patients with multiple sclerosis, with 25% inter-subject variability across studies.
The time to reach maximum plasma concentration of ponesimod is 2-4 hours post-dose.
Following IV administration in healthy subjects, the steady-state volume of distribution of ponesimod is 160 L.

[1] = Pharmacokinetics in renal impairment; assay type: in vivo, human; conditions: moderate or severe renal impairment
Source text: No dose adjustment is necessary in patients with renal impairment. […] The effect of dialysis on the PK of ponesimod has not been studied. Due to the high plasma protein binding (greater than 99%) of ponesimod, dialysis is not expected to alter the total and unbound ponesimod concentration, and no dose adjustments are anticipated based on these considerations.

[2] = Pharmacokinetics in hepatic impairment (Child-Pugh class A, B, C); assay type: in vivo, human
[3] = system: P-gp, BCRP, OATP1B1, or OATP1B3 transporters; assay: Transporter substrate assessment; assay type: in vitro ADME
Source text: Drugs that are inhibitors of these transporters are unlikely to impact the PK of ponesimod.

Solubility in water = assay type: physicochemical
pregnant rats = assay: Embryofetal development study in pregnant rats, oral; assay type: in vivo
Source text: Maternal toxicity was not observed, indicating a selective effect on the fetus.

pregnant rabbits = assay: Embryofetal development study in pregnant rabbits, oral; assay type: in vivo
Source text: No maternal toxicity was observed.

female rats = assay: Pre- and postnatal development study in female rats, oral; assay type: in vivo, rat
Source text: There are no data on the presence of PONVORY in human milk, the effects on the breastfed infant, or the effects of the drug on milk production.

mice = assay: Carcinogenesis, mice, oral up to 2 years; assay type: in vivo, mouse
Experimental: Plasma exposure (AUC) at to lowest dose tested in males (50 mg/kg/day) was approximately 5 times that in humans at the recommended human dose (RHD) of 20 mg.

rats = assay: Carcinogenesis, rats, oral up to 2 years; assay type: in vivo, rat
Experimental: Plasma exposure at the highest dose tested in males (30 mg/kg/day) was approximately 4 times that in humans at the recommended human dose (RHD) of 20 mg.

mammalian cells = assay: Chromosomal aberration in mammalian cells; assay type: cell-based; conditions: in vitro
Source text: Ponesimod was negative in a battery of in vitro (Ames, chromosomal aberration in mammalian cells) and in vivo (micronucleus in rat) assays.

male and female rats = assay: Fertility studies in male and female rats, oral; assay type: in vivo, rat
Experimental: Plasma ponesimod exposures (AUC) at the highest dose tested were approximately 10 (males) and 30 (females) times that in humans at the recommended human dose (RHD) of 20 mg/day.

[4] = system: CYP450, UGT and non-CYP450 oxidative enzymes; assay: In vitro studies with human liver preparations (metabolism); assay type: in vitro ADME
Source text: Experiments with human liver preparations indicate that metabolism of ponesimod to M13 occurs primarily through a combination of non-Cytochrome P450 (CYP450) enzymatic activities. Multiple CYP450 (CYP2J2, CYP3A4, CYP3A5, CYP4F3A, and CYP4F12) and non-CYP450 enzymes catalyze the oxidation of ponesimod to M12. Ponesimod also undergoes direct glucuronidation (mainly UGT1A1 and UGT2B7).

CCC/N=C1\S/C(=C\c2ccc(OC[C@H](O)CO)c(Cl)c2)C(=O)N1c1ccccc1C [Ponesimod, (R)-5-[3-chloro-4-(2,3-dihydroxy-propoxy)-benz[Z]ylidene]-2-([Z]-propylimino)-3-o-tolyl-thiazolidin-4-one]
Effect of food on pharmacokinetics (clinical): does not have a clinically relevant effect | Influence of age (range: 17 to 65 years) on PK (clinical): not identified to significantly influence | Influence of gender on pharmacokinetics (clinical): no clinically significant influence | Inter-subject variability of pharmacokinetics across studies (clinical): 25% | Pharmacokinetic differences between Japanese and Caucasian subjects (clinical): No clinically relevant pharmacokinetic differences | Time to steady state on maintenance dose (clinical): 3 days | clearance (clinical; iv): 63.3 mL/min | Increase of Cmax and AUC with dose (clinical; po): approximately dose-proportionally | Steady-state levels relative to a single dose (clinical; po): 2.0-2.6 fold | Time to reach maximum plasma concentration (clinical; po): 2 to 4 h | half-life (clinical; po): ~33 h | bioavailability (clinical; po, 10 mg): 84% | Change in Cmax and AUC vs normal renal function [1]: no significant changes | Increase of AUC0-∞ vs healthy subjects ([2]; mild hepatic impairment (Child-Pugh A)): 1.3 fold | Change in Cmax vs healthy subjects ([2]; mild, moderate, or severe hepatic impairment): no change | Increase of AUC0-∞ vs healthy subjects ([2]; moderate hepatic impairment (Child-Pugh B)): 2.0 fold | Increase of AUC0-∞ vs healthy subjects ([2]; severe hepatic impairment (Child-Pugh C)): 3.1 fold | Substrate of P-gp, BCRP, OATP1B1, or OATP1B3 transporters [3]: not a substrate | Solubility in water (Solubility in water): practically insoluble or insoluble in water | Embryofetal findings in rats (pregnant rats; 0, 1, 10, or 40 mg/kg/day oral during organogenesis, at all but the lowest dose): increased incidences of fetal malformations | No-effect dose for adverse effects on embryofetal development in rats (pregnant rats; rat, in vivo): 1 mg/kg/day | Plasma exposure (AUC) at no-effect dose vs humans at RHD 20 mg/day (pregnant rats; rats): lower than that in humans | Embryofetal findings in rabbits (pregnant rabbits; 0, 0.25, 1, or 4 mg/kg/day oral, at highest dose): an increase in post-implantation loss and fetal variations | No-effect dose for adverse effects on embryofetal development in rabbits (pregnant rabbits; rabbit, in vivo): 1 mg/kg/day | Plasma exposure at no-effect dose vs humans at RHD (pregnant rabbits; rabbits): lower than that in humans | No-effect dose for adverse effects on pre- and postnatal development in rats (female rats; 5, 10, or 20 mg/kg oral): not identified | Plasma exposure (AUC) in dams at lowest dose tested vs humans at RHD (female rats; rat, in vivo): less than that in humans | Presence in offspring after dosing of female rats during pregnancy and lactation (female rats; suggesting excretion in milk): detected in the plasma of the offspring | Carcinogenicity findings in mice (mice; males all doses (50, 150, 400 mg/kg/day), females highest dose (300 mg/kg/day)): incidences in hemangiosarcoma and combined hemangioma and hemangiosarcoma | Plasma exposure (AUC) at lowest dose in male mice (50 mg/kg/day) relative to humans at RHD (mice; mouse, in vivo): approximately 5 times | Plasma exposure at highest dose in male rats (30 mg/kg/day) relative to humans at RHD (rats; rat, in vivo): approximately 4 times | Carcinogenicity findings in rats (rats; up to 30 (males) / 100 (females) mg/kg/day): did not result in an increase in tumors | Chromosomal aberration in mammalian cells result (mammalian cells): negative | Effects on fertility in rats (male and female rats; 0, 10, 30, or 100 mg/kg/day oral): no effects on fertility | Plasma exposure (AUC) at highest dose relative to humans at RHD, females (male and female rats; 100 mg/kg/day): ~30 times | Plasma exposure (AUC) at highest dose relative to humans at RHD, males (male and female rats; 100 mg/kg/day): approximately 10 times | Contribution of enzymes to metabolism [4]: without major contribution by any single enzyme
